Test results taken from patent US20210230213A1, “ARAMCHOL SALTS” (GALMED RESEARCH AND DEVELOPMENT LTD., priority 2013, published 2021).

Assay: Dynamic Vapour Sorption (DVS)
Assay type: physicochemical
Method: The samples was weighed in a glass pan, typically 20-30 mg, and equilibrated at 0% relative humidity (RH). After the material had dried, the RH was increased with 10% per step for 1 hour per increment, ending at […].
The software used for data collection was DVSWin v3.01 No Video. Data analysis was performed using DVS Standard Analysis Suite v6.3.0 (Standard).
After completion of sorption cycle, the material was dried. XRPD was performed before and after DVS.

## 3β-arachidylamido-7α,12α-dihydroxy-5β-cholan-24-oic acid N-methylglucamine salt
Example 4 material, sorption to 95% RH, […]
  total mass uptake (DVS): 16%
RH raised from 0% in 10% steps to 95% RH, stepwise, reversible
  Mass uptake (DVS): 14.9% (stepwise; reversible)
